Where two headings read alike, the source gives them in different places.
How the values were obtained:
[1] = molecular target: wild-type AM2 channel (AM2-WT) (Influenza A virus, UniProt P0DOF5); test: biochemical; settings: pH 5.5, read-out: Electrophysiological TEVC assay (% WT channel inhibition), 100 μM, two-minute time point, pH 5.5, Xenopus laevis oocytes
[2] = test system: A/California/07/2009 (H1N1) virus; test: microbe, parasite or virus in culture; format: cell-based, influenza A virus; settings: for activity at 10 µM: read-out: % plaque formation at 10 μM drug concentration against A/California/07/2009 (H1N1); for EC50: read-out: EC50 against A/California/07/2009 (H1N1)

Chain of wild-type AM2 channel (AM2-WT) (P0DOF5 whole entry): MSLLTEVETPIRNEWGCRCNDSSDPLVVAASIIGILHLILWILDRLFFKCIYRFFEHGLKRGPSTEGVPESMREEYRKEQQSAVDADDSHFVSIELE

Molecule | inhibition at 100 µM [1] [%] | activity at 10 µM ([2]; Influenza A virus, H1N1, MDCK) [%] | EC50 ([2]; Influenza A virus, H1N1, MDCK) [nM] | % plaque formation at 10 μM drug concentration against A/California/07/2009 (H1N1) [2] [%] | EC50 [2] [nM]
c1ccc(-c2cc(CNC34CC5CC(CC(C5)C3)C4)no2)cc1 [9a, N-[(5-phenyl-1,2-oxazol-3-yl)methyl]adamantan-1-amine] | ≤ 30 | < 20 | 100 to 1200 |  | 
OC12CC3CC(C1)CC(NCc1cc(-c4ccccc4Cl)on1)(C3)C2 [9d, 3-({[5-(2-chlorophenyl)-1,2-oxazol-3-yl]methyl}amino)adamantan-1-ol] | ≤ 30 | < 20 | 100 to 1200 |  | 
CSc1ccccc1-c1cc(CNC23CC4CC(CC(O)(C4)C2)C3)no1 [9f, 3-[({5-[2-(methylsulfanyl)phenyl]-1,2-oxazol-3-yl}methyl)amino]adamantan-1-ol] | ≤ 30 | < 20 | 100 to 1200 |  | 
Oc1ccccc1-c1cc(CNC23CC4CC(CC(C4)C2)C3)no1 [9h, 2-(3-(((adamantan-1-yl)amino)methyl)isoxazol-5-yl)phenol] | ≤ 30 | < 20 | 100 to 1200 |  | 
Clc1ccc(-c2cc(CNC34CC5CC(CC(C5)C3)C4)no2)s1 [9q, N-((5-(5-chlorothiophen-2-yl)isoxazol-3-yl)methyl)adamantan-1-amine] |  | < 20 |  | 0 | 100 ± 30
Clc1cc(-c2cc(CNC34CC5CC(CC(C5)C3)C4)no2)cs1 [9r, N-((5-(5-chlorothiophen-3-yl)isoxazol-3-yl)methyl)adamantan-1-amine] |  | < 20 |  |  | 
COc1sccc1-c1cc(CNC23CC4CC(CC(C4)C2)C3)no1 [9t, N-((5-(2-methoxythiophen-3-yl)isoxazol-3-yl)methyl)adamantan-1-amine] | ≤ 30 | < 20 |  |  | 
Clc1cc(-c2cc(CNC34CC5CC(CC(C5)C3)C4)no2)c(Cl)s1 [9u, N-((5-(2,5-dichlorothiophen-3-yl)isoxazol-3-yl)methyl)adamantan-1-amine] |  | < 20 |  |  | 
OC12CC3CC(C1)CC(NCc1cc(-c4cc(Cl)sc4Cl)on1)(C3)C2 [9v, 3-({[5-(2,5-dichlorothiophen-3-yl)-1,2-oxazol-3-yl]methyl}amino)adamantan-1-ol] |  | < 20 |  |  | 
N-((5-(2-(methylsulfonyl)phenyl)isoxazol-3-yl)methyl)adamantan-1-amine [9m] |  |  |  | 57.1 ± 2.4 | 

— publication PMC5967881 (Journal of medicinal chemistry, 2017)
